Structures can show the parent of a compound that is named as a salt. Bounds are passed on as bounds.

Data on two compounds can be found in patent US4818767A, “Quinate salts of antimalarial phenanthrenemethanol compounds” (SmithKline Beckman Corporation, priority 1983, dated 1989).

One series deals with P. berghei. The series can be described thus: antimalarial activity, standard in vivo test procedure against P. berghei in Swiss mice (ED50 on day 4 of treatment). The settings on record: for ED50 Day 4 (mean values): effective dose which decreases the cell parasitemia by 50 percent on day 4 of treatment: Swiss mice infected i.p. with P. berghei, oral intubation in 0.2% methyl cellulose, 1, 4, 16 mg/kg/day × 4 days, 4 mice per group, 5760 min. Here is the method: The antimalarial activity of 1-[1,3-dichloro-6-trifluoromethyl-9-phenanthryl]-3-di(n-butyl)aminopropanol quinate (Compound A) was established utilizing the following methodology. Test animals were infected by interperitoneal injection of 9×10^6 parasitized cells of P. berghei contained in 0.25 ml of 1:40 dilution in 0.9% aqueous sodium chloride with potassium citrate added of donor mouse blood which was infected with P. berghei one week earlier. Three days after injection, 3 groups of 4 mice (2 males and 2 females) were treated with Compound A at a dose level of 1, 4 and 16 mg/kg/day for 4 consecutive days. Similarly, a positive control of 3 groups of 4 mice (2 males and 2 females) were treated with halofantrine, as the hydrochloride salt, at a dose level of 1, 4 and 16 mg/kg/day for 4 consecutive days. The route of administration of Compound A and halofantrine was oral intubation of a suspension of each compound in 0.2% methyl cellulose at a constant volume of […]. A negative control group of 4 mice (2 males and 2 females) remained untreated. The results of the above test procedure expressed as an ED50 (the effective dose which decrease the cell parasitemia by 50 percent on day 4 of treatment) are shown below in Table I.

Another series can be described thus: water solubility. In kind it is physicochemical. Particulars: weight to weight basis.
Series [1] deals with multi-drug resistant Vietnam Smith strain of P. falciparum. The settings on record: administered over a short period of time, minimum of two doses; cited from earlier work.
For series [2], the system named is Cambodian Buchanan strain of P. falciparum. Particulars: administered over a short period of time, minimum of two doses; cited from earlier work.
For series [3], the system named is Chesson strain of P. vivax. The settings on record: administered over a short period of time, minimum of two doses; cited from earlier work.
The conditions of series [4]: in vivo; cited from earlier work.

For `CCCCN(CCCC)CCC(O)c1cc2c(Cl)cc(Cl)cc2c2cc(C(F)(F)F)ccc12` (centres unmarked) [Compound A, 1-[1,3-dichloro-6-trifluoromethyl-9-phenanthryl]-3-di(n-butyl)aminopropanol quinate], in the series on P. berghei (P. berghei malaria in mice, compared to halofantrine hydrochloride), the “times more effective, on a weight by weight basis, than halofantrine hydrochloride (ED50 on day 4)” value is “at least 6 times”. Moreover, the “ED50 Day 4 (mean values): effective dose which decreases the cell parasitemia by 50 percent on day 4 of treatment” value in the series with P. berghei is given as at most 1 mg/kg. Further, the solubility in “water solubility” was at most 200 mg/mL.
As to `CCCCN(CCCC)CCC(O)c1cc2c(Cl)cc(Cl)cc2c2cc(C(F)(F)F)ccc12` (centres unmarked) [Halofantrine (HCl), 1-[1,3-dichloro-6-trifluoromethyl-9-phenanthryl]-3-di-(n-butyl)-aminopropanol hydrochloride], the “ED50 Day 4 (mean values): effective dose which decreases the cell parasitemia by 50 percent on day 4 of treatment” value in the series on P. berghei (hydrochloride) was determined as 6 mg/kg. Besides, the “effectiveness against Vietnam Smith strain” value in series [1] is reported as “effective”. Also, the “effectiveness against Cambodian Buchanan strain” value in series [2] is “effective”. For the same compound, the “effectiveness against Chesson strain of P. vivax” value in series [3] was “effective”. In addition, in series [4], the systemic bioavailability entry is listed as “problems with systemic bioavailability remained”.
